Measured values published in patent US8673347B2 (Creabilis Therapeutics S.p.A., priority 2005, dated 2014).
Where two headings read alike, the source gives them in different places.

Experiments:
[1] = PK study in mice, single dermal administration; type: in vivo
Protocol: At each sampling time, approximately 0.4 mL blood samples were collected from the ventral aorta of each animal using an insulin syringe, under deep ether anesthesia, and transferred into polyethylene Eppendorf tubes containing 50 μL of 5% EDTA water solution to prevent blood clotting. Blood samples were kept in ice until centrifugation at 1400 g for 5 min. in a refrigerated centrifuge (2-4° C.). From each tube plasma samples were then recovered, put in new Eppendorf tubes and frozen at −20° C. which until the HPLC analysis.
Computer fitting of the data from each experimental group was then performed by NCOMP version 3.1 program (P. B. Laub et al., Journal of Pharmaceutical Sciences, 1996, 85(4):393-395). Values for area under the plasma concentration-time profile, T1/2, Tmax, Cmax, etc. were calculated by conventional formulas previously described (Gibaldi et al., Pharmacokinetics, 1982, Marcel Dekker, Inc., New York).

human keratinocytes = experiment: MTT-assay, antiproliferative activity on keratinocytes; type: cell-based
Protocol: A metabolic MTT-assay was performed as test of the cellular vitality. The MTT-assay was performed using a well known and validated protocol, whereby the results are quantified through a spectrophotometric lecture, the number of living cells being directly proportional to the quantity of the formazan product formed as reduction product of MTT ([3-(4,5-dimethylthiazol-2-yl)-2,5-diphenyltetrazoliumbromid]) (Mosmann T., Rapid colorimetric assay for cellular growth and survival: Application to proliferation and cytotoxicity assays. J. Immunol. Methods. 1983, Dec. 16, 65(1-2):55-63). In the present study, the MTT-assay was performed on subconfluent cultures of keratinocytes seeded in 96-well plates for cellular culture (8000 cells/well). After the cells have been exposed to the substance which has to be analyzed, the cells are incubated for 4 hours at 37° C. with MTT (0.05%) in serum-free keratinocyte growth medium (KGM Clonetics Corp. San Diego, Calif., USA). After solubilisation of the cells with detergents, the formation of the dyestuff formazan is detected using a spectrophotometer for multi-well plate at 540 nm. The results are given as optical density unit (OD). […]

[2] = Acute single dose toxicity study in mice, intraperitoneal route; type: in vivo; conditions: for LD50 at 7 days: Balb/c, mouse, in vivo, ip, single dose intraperitoneal
Protocol: (§1) Observations, which included clinical signs and behavioral changes, were performed every 30 minutes in the first 6 hour following administration, and twice a day during the following 7 days.

[3] = Acute single dose toxicity study in mice, oral administration; conditions: both sexes, Balb/c, mouse, in vivo
Protocol: as §1
Similar results have been obtained following oral administration.

LPS-induced endotoxemia = experiment: Plasma cytokines in mice after LPS-induced endotoxemia; type: in vivo; conditions: parallel experiment, treated before LPS; versus vehicle
Protocol: A study was performed with the purpose to quantitatively determine a panel of 24 cytokines in the plasma of mice at different time points after LPS-induced endotoxemia and to compare the profiles obtained with those of CT327 pre-treated endotoxemic mice.
The animals were divided into two experimental groups (55 mice/group) that were treated following this schedule:
At time 0 both groups received a dose of LPS corresponding to 4 mg/kg, i.p.
The “treated” experimental group received a single dose of CT327 corresponding to 105.56 mg/kg, i.p. This dose was administered 15 minutes before LPS endotoxemia induction (time 0). At the same time the “control” group received an equivalent volume of vehicle solution.
Each experimental group was divided into 11 sub-groups with 5 mice/sub-group. Each sub-group was sacrificed at different time points and blood samples collected.
Time points for blood sample collection were: • Time: time 0 (basal); before LPS treatment • Time: +30 minutes; after LPS treatment • Time: +1 hours; after LPS treatment • Time: +2 hours; after LPS treatment • Time: +3 hours; after LPS treatment • Time: +6 hours; after LPS treatment • Time: +12 hours; after LPS treatment • Time: +18 hours; after LPS treatment • Time: +24 hours; after LPS treatment • Time: +48 hours; after LPS treatment • Time: +72 hours; after LPS treatment
Blood samples were collected in sodium citrate tubes (100 μl sodium citrate 0.1 M/900 μl of blood) and centrifuged at 1000 g at 4° C. for 10 minutes. Plasma samples were collected and 50 μl/sample were frozen at −80° C. until testing for multiple cytokines profiling. The samples were analyzed in double through the Bio-Plex System (Bio-Rad) by using the 23-plex panel at the Dept. of Genetics, Biology and Biochemistry, Torino University, led by Prof. Silengo. Plasma levels of the following cytokines were determined: IL-1a, IL-1b, IL-2, IL-3, IL-4, IL-5, IL-6, IL-10, IL-12(p40), IL-12(p70), IL-17, G-CSF, GM-CSF, IFN-γ, KC, MIP-1-α, RANTES, TNF-α, IL-9, IL-13, eotaxin, MCP-1, MIP-1-α.

[4] = male, Balb/c, mouse, topical or ocular, 10 umol/kg, single dermal, plasma

COC(=O)[C@]1(O)C[C@@H]2O[C@@]1(C)n1c3ccccc3c3c4c(c5c6ccccc6n2c5c31)C(=O)NC4 [Compound K-252a, K-252a]
half-life ([1]; male, Balb/c, mouse, plasma, topical or ocular, 5.075 mg/kg, single dermal administration, read-out: half-life): 1.05 h | concentration at 3 h ([1]; male, Balb/c, mouse, plasma, topical, single dermal administration at same dosage (2 μmol/kg) and time point (3 hours), value±95% CI): 72.9 nM | half-life ([1]; male, Balb/c, mouse, topical or ocular, 10 umol/kg, single dermal, 10 μmol/kg, plasma, read-out: Terminal T1/2): 1.05 h | AUC(0-inf) [1, 4]: 4.75 µM·h | Cmax [1, 4]: 908 nM | Tmax [1, 4]: 3 h | time detectable in plasma after administration ([1]; single dermal administration): ≥ 9 h | concentration with statistically significant antiproliferative action (human keratinocytes; any contact time (1, 2, 4 h), cell counting after 48 h): 200 nM | antiproliferative activity (human keratinocytes; contact 1, 2, 4 h, cell counting after 96 h): obtained for any tested concentration and any contact time | LD50 at 7 days ([2]; female mice, read-out: LD50): 41.4 mg/kg | LD50 at 7 days ([2]; male mice, read-out: LD50): 37.7 mg/kg | LD50 at 7 days ([2]; both sexes, males and females together, read-out: average LD50): 39 mg/kg | survival ([2]; female mice, 45 mg/kg, five per group): One female survived out of the five | survival ([2]; female mice, 60 mg/kg, five per group): one | survival ([2]; female mice, doses higher than 60 mg/kg): lethal to all female mice | survival ([2]; female mice, lowest dose (30 mg/Kg)): survived | survival ([2]; male mice, 30 mg/Kg): survived | survival ([2]; male mice, all doses above 30 mg/Kg, within the first 22 hours after dosing): found dead | sedation ([2]; males and females, lowest dose (30 mg/Kg), disappeared within 8-10 hours): very mild/mild sedation | LD50 at 7 days [3]: 78 mg/kg | IFN-γ secretion in plasma (LPS-induced endotoxemia): significant reduction | MCP-1 secretion in plasma (LPS-induced endotoxemia): significant reduction | MIP-α secretion in plasma (LPS-induced endotoxemia): significant reduction | RANTES secretion in plasma (LPS-induced endotoxemia): significant reduction | TNF-α secretion in plasma (LPS-induced endotoxemia): significant reduction
